# Measurements published in patent US10696615B2, “Prenylated hydroxystilbenes” (The University of Sydney, priority 2011, dated 2020).
# What was measured:
# [1] = test system: SR; assay: NCI in vitro cancer screen, Leukemia; type: cell-based, human
# [2] = test system: MCF7; assay: NCI in vitro cancer screen, Breast Cancer; type: cell-based, human; conditions: MCF7
# [3] = test system: TK-10; assay: NCI in vitro cancer screen, Renal Cancer; type: cell-based, human; conditions: TK-10
# [4] = test system: HOP-92; assay: NCI in vitro cancer screen, Non-Small Cell Lung Cancer; type: cell-based, human; conditions: HOP-92
# [5] = test system: IGROV1; assay: NCI in vitro cancer screen, Ovarian Cancer; type: cell-based, human; conditions: IGROV1
# [6] = test system: SF-539; assay: NCI in vitro cancer screen, CNS Cancer; type: cell-based; conditions: SF-539
# [7] = test system: SF-295; assay: NCI in vitro cancer screen, CNS Cancer; type: cell-based, human; conditions: SF-295
# [8] = test system: NCI-H522; assay: NCI in vitro cancer screen, Non-Small Cell Lung Cancer; type: cell-based, human; conditions: NCI-H522
# [9] = test system: PC-3; assay: NCI in vitro cancer screen, Prostate Cancer; type: cell-based, human; conditions: PC-3
# [10] = test system: U251; assay: NCI in vitro cancer screen, CNS Cancer; type: cell-based, human; conditions: U251
# [11] = test system: SW-620; assay: NCI in vitro cancer screen, Colon Cancer; type: cell-based, human; conditions: SW-620
# [12] = test system: MDA-MB-231 (MDA-MB-231/ATCC); assay: NCI in vitro cancer screen, Breast Cancer; type: cell-based, human; conditions: MDA-MB-231
# [13] = test system: NCI-H226; assay: NCI in vitro cancer screen, Non-Small Cell Lung Cancer; type: cell-based, human; conditions: NCI-H226
# [14] = test system: NCI-H23; assay: as above; type: cell-based, human; conditions: NCI-H23
# [15] = test system: NCI-H460; assay: as above; type: cell-based, human; conditions: NCI-H460
# [16] = test system: UO-31; assay: NCI in vitro cancer screen, Renal Cancer; type: cell-based, human; conditions: UO-31
# [17] = test system: UACC-257; assay: NCI in vitro cancer screen, Melanoma; type: cell-based, human; conditions: UACC-257
# [18] = test system: MALME-3M; assay: NCI in vitro cancer screen, Melanoma; type: cell-based, human
# [19] = test system: LOX IMVI; assay: NCI in vitro cancer screen, Melanoma; type: cell-based, human
# [20] = test system: SN12C; assay: NCI in vitro cancer screen, Renal Cancer; type: cell-based, human
# [21] = test system: SK-MEL-28; assay: NCI in vitro cancer screen, Melanoma; type: cell-based, human; conditions: SK-MEL-28
# [22] = test system: CAKI-1; assay: NCI in vitro cancer screen, Renal Cancer; type: cell-based, human; conditions: CAKI-1
# [23] = test system: MDA-MB-435; assay: NCI in vitro cancer screen, Melanoma; type: cell-based, human; conditions: MDA-MB-435
# [24] = test system: MOLT-4; assay: NCI in vitro cancer screen, Leukemia; type: cell-based, human; conditions: MOLT-4
# [25] = test system: KM12; assay: NCI in vitro cancer screen, Colon Cancer; type: cell-based, human; conditions: KM12
# [26] = test system: SNB-19; assay: NCI in vitro cancer screen, CNS Cancer; type: cell-based, human; conditions: SNB-19
# [27] = test system: MDA-MB-468; assay: NCI in vitro cancer screen, Breast Cancer; type: cell-based, human; conditions: MDA-MB-468
# [28] = test system: A498; assay: NCI in vitro cancer screen, Renal Cancer; type: cell-based, human; conditions: A498
# [29] = Homo sapiens, read-out: LC50 (the source's name)
structure (smiles),measurement,setting,value
"CC(C)=CCOc1cc(O)cc(/C=C/c2ccc(O)c(O)c2)c1 [USYDS4, (E)-3-(3-methyl-2-butenyloxy)-3′,4′,5-trihydroxystilbene]",TGI,[1],>100 µM
same,GI50,[1]; Homo sapiens,0.95 µM
same,CC50,[1]; [29],> 100 µM
same,GI50,[2]; Homo sapiens,2.57 µM
same,CC50,[2]; [29],51.1 µM
same,TGI,[2],18.2 µM
same,GI50,[3]; Homo sapiens,3.87 µM
same,LC50,[3]; Homo sapiens,> 100 µM
same,TGI,[3],9.66 µM
same,TGI,[4],13.6 µM
same,GI50,[4]; Homo sapiens,1.92 µM
same,CC50,[4]; [29],62.3 µM
same,GI50,"[5]; Homo sapiens, IGROV-1",3.74 µM
same,CC50,"[5]; Homo sapiens, IGROV-1, read-out: LC50 (the source's name)",> 100 µM
same,TGI,[5],44.8 µM
same,GI50,[6]; Homo sapiens,3.45 µM
same,CC50,[6]; [29],97.5 µM
same,TGI,[6],22.3 µM
same,GI50,[7]; Homo sapiens,7.29 µM
same,CC50,[7]; [29],70.9 µM
same,TGI,[7],24.3 µM
same,GI50,[8]; Homo sapiens,1.07 µM
same,CC50,[8]; [29],6.04 µM
same,TGI,[8],2.54 µM
same,GI50,[9]; Homo sapiens,4.47 µM
same,CC50,[9]; [29],87.9 µM
same,TGI,[9],22.0 µM
same,GI50,"[10]; Homo sapiens, U-251",3.67 µM
same,CC50,"[10]; Homo sapiens, U-251, read-out: LC50 (the source's name)",45.5 µM
same,TGI,[10],15.6 µM
same,GI50,[11]; Homo sapiens,2.97 µM
same,CC50,[11]; [29],46.5 µM
same,TGI,[11],16.6 µM
same,GI50,[12]; Homo sapiens,1.04 µM
same,CC50,[12]; [29],> 100 µM
same,TGI,[12],18.4 µM
same,GI50,[13]; Homo sapiens,5.14 µM
same,LC50 (50% lethal concentration),[13]; Homo sapiens,78 µM
same,TGI,[13],23.1 µM
same,GI50,[14]; Homo sapiens,3.42 µM
same,LC50,[14]; Homo sapiens,81.9 µM
same,TGI,[14],20.8 µM
same,GI50,[15]; Homo sapiens,3.65 µM
same,CC50,[15]; [29],> 100 µM
same,TGI,[15],20.3 µM
same,GI50,[16]; Homo sapiens,3.31 µM
same,CC50,[16]; [29],66.4 µM
same,TGI,[16],20.7 µM
same,GI50,[17]; Homo sapiens,5.44 µM
same,CC50,[17]; [29],48.6 µM
same,TGI,[17],19.4 µM
same,GI50,"[18]; Homo sapiens, Malme-3M",7.25 µM
same,CC50,"[18]; Homo sapiens, Malme-3M, read-out: LC50 (the source's name)",> 100 µM
same,TGI,[18]; MALME-3M,30.6 µM
same,TGI,[19],19.3 µM
same,GI50,[19]; Homo sapiens,3.82 µM
same,CC50,[19]; [29],58.5 µM
same,TGI,[20],20.0 µM
same,GI50,[20]; Homo sapiens,3.94 µM
same,CC50,[20]; [29],74.1 µM
same,GI50,[21]; Homo sapiens,9.18 µM
same,LC50,[21]; Homo sapiens,77.9 µM
same,TGI,[21],27.6 µM
same,TGI,[22],>100 µM
same,GI50,[22]; Homo sapiens,5.25 µM
same,CC50,[22]; [29],> 100 µM
same,GI50,[23]; Homo sapiens,0.36 µM
same,CC50,[23]; [29],> 100 µM
same,TGI,[23],21.6 µM
same,GI50,[24]; Homo sapiens,4.31 µM
same,CC50,[24]; [29],> 100 µM
same,TGI,[24],21.6 µM
same,GI50,[25]; Homo sapiens,3.27 µM
same,CC50,[25]; [29],46.5 µM
same,TGI,[25],14.2 µM
same,GI50,[26]; Homo sapiens,10.5 µM
same,CC50,[26]; [29],63.8 µM
same,TGI,[26],25.8 µM
same,GI50,[27]; Homo sapiens,2.53 µM
same,CC50,[27]; [29],55.1 µM
same,TGI,[27],9.51 µM
same,TGI,[28],23.5 µM
same,GI50,[28]; Homo sapiens,9.07 µM
same,CC50,[28]; [29],55.2 µM
